Tested on: NLRP3 inflammasome
Experiment: NLRP3 inflammasome activation: ASC-SPECK formation in gramicidin-stimulated THP-1 cells
Assay type: cell-based
Conditions: Homo sapiens, THP-1, inhibition of ASC SPECK formation; PMA-treated human monocytic THP-1 cells, compound 1 h before 12.5 μg/ml gramicidin, 3-hour treatment
In short: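 Undifferentiated human THP-1 cells primed overnight with 10 ng/ml PMA, then given compounds 1 h before 12.5 μg/ml gramicidin for 3 h at 37° C in RPMI with 0.01% BSA. Fixed cells immunostained for ASC with DRAQ5 nuclear counterstain; DRAQ5-positive cells with ASC specks counted by high-content imaging; EC50 from curve fitting.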

| EC50 [nM] | Structure (SMILES) |
| --- | --- |
| 321 | Cc1cc(C(F)(F)F)cc(O)c1-c1cnc2cn([C@H]3CCOC[C@@H]3F)nc2n1 (single isomer, unassigned) [Example 103, 2-(2-((3R,4S or 3S,4R)-3-fluorotetrahydro-2H-pyran-4-yl)-2H-pyrazolo[3,4-b]pyrazin-6-yl)-3-methyl-5-(trifluoromethyl)phenol] |
| 433 | Cc1cc(C(F)(F)F)cc(O)c1-c1cnc2cn(C3CCOCC3(F)F)nc2n1 (single isomer, unassigned) [Example 105, (R or S)-2-(2-(3,3-difluorotetrahydro-2H-pyran-4-yl)-2H-pyrazolo[3,4-b]pyrazin-6-yl)-3-methyl-5-(trifluoromethyl)phenol] |
| 191 | Cc1cc(C(F)(F)F)cc(O)c1-c1cnc2c(C)n(C3CCC(=O)N(C)C3)nc2n1 (single isomer, unassigned) [Example 106, (S or R)-5-(6-(2-hydroxy-6-methyl-4-(trifluoromethyl)phenyl)-3-methyl-2H-pyrazolo[3,4-b]pyrazin-2-yl)-1-methylpiperidin-2-one] |
| 649 | CCOCOc1cc(C(F)(F)F)cc(C)c1-c1cnc2c([C@H](C)O)n(C[C@H]3CC(=O)N(C4CC4)C3)nc2n1 (single isomer, unassigned) [Example 113, (S or R)-1-cyclopropyl-4-((6-(2-(ethoxymethoxy)-6-methyl-4-(trifluoromethyl)phenyl)-3-((S or R)-1-hydroxyethyl)-2H-pyrazolo[3,4-b]pyrazin-2-yl)methyl)pyrrolidin-2-one] |
| 57 | CCOCOc1cc(C(F)(F)F)cc(C)c1-c1cnc2c([C@@H](C)O)n(C[C@H]3CC(=O)N(C4CC4)C3)nc2n1 (single isomer, unassigned) [Example 114, (S or R)-1-cyclopropyl-4-((6-(2-(ethoxymethoxy)-6-methyl-4-(trifluoromethyl)phenyl)-3-((R or S)-1-hydroxyethyl)-2H-pyrazolo[3,4-b]pyrazin-2-yl)methyl)pyrrolidin-2-one] |
| 287 | CCOCOc1cc(C(F)(F)F)cc(C)c1-c1cnc2c([C@@H](C)O)n(C[C@@H]3CC(=O)N(C4CC4)C3)nc2n1 (single isomer, unassigned) [Example 115, (R or S)-1-cyclopropyl-4-((6-(2-(ethoxymethoxy)-6-methyl-4-(trifluoromethyl)phenyl)-3-((R or S)-1-hydroxyethyl)-2H-pyrazolo[3,4-b]pyrazin-2-yl)methyl)pyrrolidin-2-one] |
| 28 | CCOCOc1cc(C(F)(F)F)cc(C)c1-c1cnc2c([C@H](C)O)n(C[C@@H]3CC(=O)N(C4CC4)C3)nc2n1 (single isomer, unassigned) [Example 116, (R or S)-1-cyclopropyl-4-((6-(2-(ethoxymethoxy)-6-methyl-4-(trifluoromethyl)phenyl)-3-((S or R)-1-hydroxyethyl)-2H-pyrazolo[3,4-b]pyrazin-2-yl)methyl)pyrrolidin-2-one] |

Same assay, conditions: inhibition of ASC SPECK formation; PMA-treated human monocytic THP-1 cells, compound 1 h before 12.5 μg/ml gramicidin, 3-hour treatment

| EC50 [nM] | Structure (SMILES) |
| --- | --- |
| 169 | Cc1cc(C(F)(F)F)cc(O)c1-c1cnc2cn(C3CCOCC34CC4)nc2n1 (single isomer, unassigned) [Example 100, (S or R)-2-(2-(5-oxaspiro[2.5]octan-8-yl)-2H-pyrazolo[3,4-b]pyrazin-6-yl)-3-methyl-5-(trifluoromethyl)phenol] |
| 117 | Cc1cc(C(F)(F)F)cc(O)c1-c1cnc2cn([C@H]3CCOC[C@H]3F)nc2n1 (single isomer, unassigned) [Example 101, 2-(2-((3S,4S or 3R,4R)-3-fluorotetrahydro-2H-pyran-4-yl)-2H-pyrazolo[3,4-b]pyrazin-6-yl)-3-methyl-5-(trifluoromethyl)phenol] |
| 314 | Cc1cc(C(F)(F)F)cc(O)c1-c1cnc2cn([C@H]3CCOC[C@H]3F)nc2n1 (single isomer, unassigned) [Example 102, 2-(2-((3R,4R or 3S,4S)-3-fluorotetrahydro-2H-pyran-4-yl)-2H-pyrazolo[3,4-b]pyrazin-6-yl)-3-methyl-5-(trifluoromethyl)phenol] |
| 291 | Cc1cc(C(F)(F)F)cc(O)c1-c1cnc2cn([C@H]3CCOC[C@@H]3F)nc2n1 (single isomer, unassigned) [Example 104, 2-(2-((3S,4R or 3R,4S)-3-fluorotetrahydro-2H-pyran-4-yl)-2H-pyrazolo[3,4-b]pyrazin-6-yl)-3-methyl-5-(trifluoromethyl)phenol] |
| 66 | Cc1cc(C(F)(F)F)cc(O)c1-c1cnc2c(C)n(C3CCC(=O)NC3)nc2n1 (single isomer, unassigned) [Example 108, (R or S)-5-(6-(2-hydroxy-6-methyl-4-(trifluoromethyl)phenyl)-3-methyl-2H-pyrazolo[3,4-b]pyrazin-2-yl)piperidin-2-one] |
| 279 | Cc1cc(C(F)(F)F)cc(O)c1-c1cnc2c(C)n(C3CCC(=O)NC3)nc2n1 (single isomer, unassigned) [Example 109, (S or R)-5-(6-(2-hydroxy-6-methyl-4-(trifluoromethyl)phenyl)-3-methyl-2H-pyrazolo[3,4-b]pyrazin-2-yl)piperidin-2-one] |
| 175 | Cc1nc2cn(C3CCC(=O)N(C)C3)nc2nc1-c1ccc(C(F)(F)F)cc1O (single isomer, unassigned) [Example 111, (R or S)-5-(6-(2-hydroxy-4-(trifluoromethyl)phenyl)-5-methyl-2H-pyrazolo[3,4-b]pyrazin-2-yl)-1-methylpiperidin-2-one] |
| 605 | Cc1nc2cn(C3CCC(=O)N(C)C3)nc2nc1-c1ccc(C(F)(F)F)cc1O (single isomer, unassigned) [Example 112, (S or R)-5-(6-(2-hydroxy-4-(trifluoromethyl)phenyl)-5-methyl-2H-pyrazolo[3,4-b]pyrazin-2-yl)-1-methylpiperidin-2-one] |
| 29 | Cc1cc(C(F)(F)F)cc(O)c1-c1cnc2c(C(C)O)n(C3CCC(=O)N(C(C)C)C3)nc2n1 (single isomer, unassigned) [Example 117, (S or R)-5-(6-(2-hydroxy-6-methyl-4-(trifluoromethyl)phenyl)-3-((S or R)-1-hydroxyethyl)-2H-pyrazolo[3,4-b]pyrazin-2-yl)-1-isopropylpiperidin-2-one] |
| 26 | Cc1cc(C(F)(F)F)cc(O)c1-c1cnc2c(C(C)O)n(C3CCC(=O)N(C(C)C)C3)nc2n1 (single isomer, unassigned) [Example 118, (R or S)-5-(6-(2-hydroxy-6-methyl-4-(trifluoromethyl)phenyl)-3-((S or R)-1-hydroxyethyl)-2H-pyrazolo[3,4-b]pyrazin-2-yl)-1-isopropylpiperidin-2-one] |
| 291 | Cc1cc(C(F)(F)F)cc(O)c1-c1cnc2c(C(C)O)n(C3CCC(=O)N(C(C)C)C3)nc2n1 (single isomer, unassigned) [Example 119, (R or S)-5-(6-(2-hydroxy-6-methyl-4-(trifluoromethyl)phenyl)-3-((R or S)-1-hydroxyethyl)-2H-pyrazolo[3,4-b]pyrazin-2-yl)-1-isopropylpiperidin-2-one] |
| 3880 | Cc1cc(C(F)(F)F)cc(O)c1-c1cnc2c(C(C)O)n(C3CCC(=O)N(C(C)C)C3)nc2n1 (single isomer, unassigned) [Example 120, (S or R)-5-(6-(2-hydroxy-6-methyl-4-(trifluoromethyl)phenyl)-3-((R or S)-1-hydroxyethyl)-2H-pyrazolo[3,4-b]pyrazin-2-yl)-1-isopropylpiperidin-2-one] |
